The text below walks through data of US9469618B2, “Thiadiazolidinediones as GSK-3 inhibitors” (ASD THERAPEUTICS PARTNERS LLC, priority 2012, dated 2016).

Converted amounts (≈) assume the structure as drawn. Some results are limits rather than exact numbers.

The nature of series [1]: Thermodynamic solubility of TDZDs. Type of series: physicochemical. The settings on record: phosphate buffered saline, aqueous buffer, thermodynamic from solid; aqueous 0.01 M PBS pH 7.4, 2 mg/mL samples, 24 hours mixing, LC-UV. How it is done: Thermodynamic solubility was determined in duplicate from samples with a compound concentration of 2 mg/mL in aqueous 0.01 M phosphate buffered saline (PBS) pH 7.4 with a mixing period of 24 hours. Analysis and quantification was performed by LC-UV. Calibration lines were prepared for each compound from samples at of 1.0, 0.1, 0.01 and 0.001 mg/mL concentration in acetonitrile.

The target in series [2] is T1, human recombinant GSK3β (N-terminal 6His-tagged recombinant enzyme with an H350L mutation) (Homo sapiens, UniProt P49841).
T1 construct: 6His (N); purchased Millipore (Billerica, Mass., USA)
Nature of the series: GSK-3 assay (Z'-LYTE FRET enzymatic activity). The class given is biochemical. The settings on record: 2 nM enzyme, 12.5 μM ATP, 2 μM Ser/Thr 9 peptide, 60 min at room temperature; concentration in M units; read-out: GSK-3 inhibition pEC50 average (converted). The protocol: The enzymatic activity of GSK3β was determined with a commercial system based on the Z'-LYTE® technology, available from Life Technologies (Carlsbad, Calif., USA), using human recombinant GSK3β (N-terminal 6His-tagged recombinant enzyme with an H350L mutation) from Millipore (Billerica, Mass., USA) as the enzyme source. This technology utilizes the fluorescence resonance energy transfer (“FRET”) process between fluorescein and coumarin. The assay principle is based on the differential sensitivity of phosphorylated and non-phosphorylated peptide to proteolytic cleavage, which precludes the energy transfer process between the two fluorophores attached to both sides of the cleavage site. […] The assay is performed in 384-well black plates, in a final volume of 10 μl, with 2 nM enzyme concentration in 50 mM Hepes pH 7.5, 50 mM MgCl2, 5 mM EGTA and 0.05% Brij-35, using 12.5 μM ATP and 2 μM substrate peptide. The latter is a synthetic peptide, provided by Invitrogen under the commercial name “Ser/Thr 9 peptide”, and it is based upon the sequence of a GSK3β substrate protein (glycogen synthase I) containing Ser-641. The peptide is labeled at both ends with fluorescein and coumarin. The assay is carried out in the presence of different concentrations of the tested compound, at a final 1% (v/v) DMSO concentration. After a 60 min incubation at room temperature, 5 μl of a commercial protease solution (sold by the same vendor in the assay kit) is added and a subsequent 1 h incubation at room temperature is performed, before adding 5 μl of a suitable “stop solution”, also provided by the vendor in the kit. After that, fluorescence intensity is recorded, monitoring emission at both 445 and 520 nm, upon excitation at 400 nm. An emission ratio is finally calculated, using the quotient among the emission at 445 nm divided by that at 520 nm.
The emission ratio of each tested sample is normalized to that of the control wells, so that for every compound concentration the percentage of inhibition is calculated by using the following equation:
[formula] where “S” is the emission from the wells with the tested sample, “E” is the average emission from control wells with full enzyme activity and “B” is the average emission from wells with full enzyme inhibition. Inhibition values obtained for every compound concentration are finally used to calculate the pEC50 of the tested compound, this parameter being the negative value of the logarithm of the compound concentration, in M units, causing 50% of its maximum effect (i.e., the higher the pEC50 value the higher the potency of the compound). For that purpose the data were fitted to the following equation using the nonlinear regression function of GraphPad™ Prism 5.0 (GraphPad Software Inc.): […]

T1 sequence (P49841 whole entry, stated change not applied): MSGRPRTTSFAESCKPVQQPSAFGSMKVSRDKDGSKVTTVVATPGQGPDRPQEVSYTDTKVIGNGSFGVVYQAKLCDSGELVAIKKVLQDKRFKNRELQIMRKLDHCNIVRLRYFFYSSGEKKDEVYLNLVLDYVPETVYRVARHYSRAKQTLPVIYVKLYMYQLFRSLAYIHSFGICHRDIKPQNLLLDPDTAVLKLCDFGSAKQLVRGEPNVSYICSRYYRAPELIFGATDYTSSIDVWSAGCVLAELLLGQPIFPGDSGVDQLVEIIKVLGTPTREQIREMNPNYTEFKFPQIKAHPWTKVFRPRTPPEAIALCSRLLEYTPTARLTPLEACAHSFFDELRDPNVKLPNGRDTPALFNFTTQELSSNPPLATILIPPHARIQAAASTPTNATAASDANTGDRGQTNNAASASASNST

Usually solubility (thermodynamic) stands for the concentration in solution at equilibrium with solid. On to `CCOC(=O)Cn1c(=O)sn(C(Cc2ccccc2)C(=O)OCC)c1=O` (stereo not drawn) [Compound 3], for which the thermodynamic solubility at 24 h in series [1] came out at 22 µg/mL (≈ 57.8 µM). The EC50 in series [2] was 25.1 nM.

Take `O=c1sn(-c2cccc3ccccc23)c(=O)n1Cc1ccccc1` [Compound 5, reference compound]: the thermodynamic solubility at 24 h in series [1] is ≤ 1 µg/mL.

In series [1], `CCn1c(=O)sn(Cc2ccccc2)c1=O` [Compound 1, 2-benzyl-4-ethyl-[1,2,4]thiadiazolidine-3,5-dione] returned a solubility (thermodynamic) at 24 h of 617 µg/mL (≈ 2610 µM). Also, the EC50 in series [2] is 631 nM.

In series [1], `O=c1sn(Cc2ccccc2)c(=O)n1CC1CCCO1` (stereo not drawn) [Compound 2, 2-benzyl-4-(tetrahydro-furan-2-ylmethyl)-[1,2,4]thiadiazolidine-3,5-dione] yielded a thermodynamic solubility at 24 h of 1030 µg/mL (≈ 3520 µM). Besides, in series [2], the EC50 is 2000 nM.

In series [1], `O=c1sn(Cc2ccccc2)c(=O)n1CCO` [Compound 4, 2-benzyl-4-(2-hydroxy-ethyl)-[1,2,4]thiadiazolidine-3,5-dione] returned a solubility (thermodynamic) at 24 h of 1840 µg/mL (≈ 7300 µM). Besides, the EC50 in series [2] is 1580 nM.
